According to PMC6479946 (Molecules, 2019):
Where “and” joins values, the source holds several entries; their conditions need not be identical. Identical values can stand only once. Like-named read-outs stand apart in the source and are kept apart here.

Key:
CYP1A2 = conditions: rat liver microsomes; cited from earlier work
CYP3A4 = conditions: rat liver microsomes; cited from earlier work
CYP2D6 = conditions: rat liver microsomes; cited from earlier work
in vivo = conditions: for AUC(0-inf) / Tmax / AUC(0-t) / CL/F / Cmax / k el / MRT: male, Sprague-Dawley, po, 5 mg/kg; for AUC(0-inf): AUC(0-∞) of MEM; for AUC(0-inf) / Tmax / AUC(0-t) / CL/F / Cmax / k el / MRT / Ka of MEM / T1/2a of MEM / T1/2d of MEM / Vd of MEM: n = 8, mean ± SD; for Tmax: Tmax of MEM; for AUC(0-t): AUC(0-t) of MEM; for CL/F: CL/F of MEM; for Cmax: Cmax of MEM; for k el: Ke of MEM; for MRT: MRT of MEM
Experimental: The analytes were separated on an ACQUITY UPLC BEH C18 column (2.1 mm × 50 mm, 1.7 μm, Waters, Milford, USA). […] The flow rate was 0.3 mL/min. The column and sample-tray temperature were kept at 40 °C and 4 °C, respectively. The injection volume was 5.0 μL using a partial loop with needle over fill mode.
The compound dependent parameters used for analysis were summarized in Supplementary materials Table S1.
A rapid and convenient precipitation method was used to prepare the plasma samples. A 100 μL aliquot of plasma sample was spiked with 100 μL of IS solution and 300 μL of methanol in a 1.5 mL centrifuge tube; subsequently, the mixtures were vortex-mixed for 30.0 s and then centrifuged at 1.5 × 10^4× g for 10 min at 4 °C. A 100 μL aliquot of supernatant was combined with 25.0 μL of 0.1% formic acid water in a clean centrifuge tube and then vortex-mixed for 30 s. A 5.0 μL aliquot of mixture was injected into the UPLC-MS/MS system for analysis.
Fifty-six pathogen-free male adult rats were randomly divided into seven groups with eight rats in each group for pharmacokinetic study. […] One group was intragastrically administered with MEM hydrochloride 5.0 mg/kg dissolved in ultrapure water, namely, MEM group. […] The blood samples were immediately centrifuged at 4.0 × 10^3× g at […] for 10 min, and 100 μL of the supernatant plasma was transferred into another new 1.5 mL centrifuge tube and stored at −20 °C until UPLC-MS/MS analysis.
All standard curves and quantitative data were processed by Agilent Mass Hunter Quantitative Analysis Workstation Software. […] All the pharmacokinetic parameters were processed using the non-compartmental pharmacokinetics data analysis software program PK solutions 2.0^TM (Summit Research Services, USA). […] The AUC(0-t) was obtained by the linear/logarithmic trapezoidal rule, and the area under the plasma concentration versus time curve from zero to infinity (AUC(0-∞)) was calculated by means of the trapezoidal rule with extrapolation to infinity with a terminal elimination rate constant. The Pearson correlation coefficient analysis was processed by IBM SPSS Statistics Version 21. A statistical analysis was performed using analysis of variance with α = 0.05 as the minimal level of significance.

[1] = rats, cited from earlier work
[2] = rat, plasma, rat plasma, oral MEM 5.0 mg/kg + HAR 20.0 mg/kg (HAR-L + MEM)
[3] = rat, plasma, rat plasma, oral MEM 5.0 mg/kg + HAR 40.0 mg/kg (HAR-M + MEM)
[4] = rat, plasma, rat plasma, oral MEM 5.0 mg/kg + HAR 80.0 mg/kg (HAR-H + MEM)
[5] = rat, plasma, rat plasma, oral MEM 5.0 mg/kg alone (MEM group)
[6] = rat plasma, oral MEM 5.0 mg/kg + HAR 20.0 mg/kg (HAR-L + MEM)
[7] = rat plasma, oral MEM 5.0 mg/kg + HAR 40.0 mg/kg (HAR-M + MEM)
[8] = rat plasma, oral MEM 5.0 mg/kg + HAR 80.0 mg/kg (HAR-H + MEM)
[9] = rat plasma, oral MEM 5.0 mg/kg alone (MEM group)

## CC12CC3CC(C)(C1)CC(N)(C3)C2 [MEM, 1-amino-3,5-dimethyladamantane, reference compound]
CYP1A2
  inhibition of CYP1A2: weak inhibitor
CYP3A4
  inhibition of CYP3A4: weak inhibitor
CYP2D6
  inhibition of CYP2D6: strong inhibitor
In vivo; rat, in vivo, rat plasma, oral MEM 5.0 mg/kg + HAR 80.0 mg/kg (HAR-H + MEM)
  AUC(0-inf): 781 ± 285 ng·h/mL
In vivo; rat, in vivo, rat plasma, oral MEM 5.0 mg/kg + HAR 20.0 mg/kg (HAR-L + MEM)
  Tmax: 3.13 ± 2.23 h
In vivo; [2]
  AUC(0-t): 392 ± 55.2 ng·h/mL
  AUC(0-inf): 477 ± 75.1 ng·h/mL
  CL/F: 178 mL/min/kg
  Cmax: 50.5 ± 7.59 ng/mL
  k el: 5.31e-05 s⁻¹
  MRT: 7.45 ± 1.51 h
In vivo; [3]
  AUC(0-t): 472 ± 105 ng·h/mL
  AUC(0-inf): 547 ± 142 ng·h/mL
  CL/F: 162 mL/min/kg
  Cmax: 74.9 ± 15 ng/mL
  k el: 5.97e-05 s⁻¹
  MRT: 6.25 ± 1.25 h
  Tmax: 1.56 ± 1.11 h
In vivo; [4]
  AUC(0-t): 603 ± 149 ng·h/mL
  CL/F: 118 mL/min/kg
  Cmax: 74.3 ± 26.6 ng/mL
  k el: 5.64e-05 s⁻¹
  MRT: 8.5 ± 3.74 h
  Tmax: 4 ± 1.85 h
In vivo; [5]
  AUC(0-t): 349 ± 46.2 ng·h/mL
  AUC(0-inf): 367 ± 4.87 ng·h/mL
  CL/F: 230 mL/min/kg
  Cmax: 84.8 ± 25.8 ng/mL
  k el: 7.25e-05 s⁻¹
  MRT: 4.04 ± 0.808 h
  Tmax: 1.31 ± 0.579 h
In vivo; [6]
  Ka of MEM: 0.595 ± 0.315 h⁻¹
  T1/2a of MEM: 1.37 ± 0.468 h
  T1/2d of MEM: 2.42 ± 1.06 h
  Vd of MEM: 60.1 ± 19.3 L/kg
In vivo; [7]
  Ka of MEM: 1.08 ± 1.05 h⁻¹
  T1/2a of MEM: 0.945 ± 0.398 h
  T1/2d of MEM: 1.67 ± 0.560 h
  Vd of MEM: 48.4 ± 16.4 L/kg
In vivo; [8]
  Ka of MEM: 0.481 ± 0.203 h⁻¹
  T1/2a of MEM: 1.61 ± 0.459 ^bb h
  T1/2d of MEM: 1.61 ± 0.529 h
  Vd of MEM: 38.3 ± 13.1 L/kg
In vivo; rat plasma, oral MEM 5.0 mg/kg + HAR 20.0, 40.0 or 80.0 mg/kg
  MEM in plasma within 24.0 h after co-administrations: a small amount of MEM could still be detected
In vivo; [9]
  MEM in plasma after 24 h of administration: no MEM was detected
  Ka of MEM: 1.73 ± 0.848 h⁻¹
  T1/2a of MEM: 0.482 ± 0.202 h
  T1/2d of MEM: 3.08 ± 2.37 h
  Vd of MEM: 53.8 ± 10.6 L/kg
In vivo; rat, in vivo
  T1/2e of MEM: 2.69 ± 0.306 h and 3.96 ± 1.44 h and 3.62 ± 1.42 h and 4.27 ± 3.03 h
[1]; administered orally with 1.22 mg eq./mL MEM
  T1/2e of MEM: 2.23 h
[1]; administered orally with 2.00 mg eq./mL MEM
  T1/2e of MEM: 3.92 h
